# Assay results from ChEMBL document CHEMBL2440076, “New triarylpyrazoles as broad-spectrum anticancer agents: design, synthesis, and biological evaluation” (Eur J Med Chem, 2013).
# Columns and labels:
# Type in all cases: functional
# OVCAR-3 [1] = assay: Growth inhibition of human OVCAR3 cells assessed as cell growth at 3X10'-8 M after 48 hrs by sulforhodamine B assay; settings: OVCAR-3, 48 h, read-out: Activity
# MDA-MB-468 = assay: Growth inhibition of human MDA-MB-468 cells assessed as cell growth at 3X10'-9 M after 48 hrs by sulforhodamine B assay; settings: MDA-MB-468, 48 h, read-out: Activity
# UO-31 = assay: Growth inhibition of human UO31 cells assessed as cell growth at 3X10'-6 M after 48 hrs by sulforhodamine B assay; settings: UO-31, 48 h, read-out: Activity
# 786-0 [2] = assay: Growth inhibition of human 786-0 cells assessed as cell growth at 3X10'-7 M after 48 hrs by sulforhodamine B assay; settings: 786-0, 48 h, read-out: Activity
# HL-60(TB) = assay: Growth inhibition of human HL-60(TB) cells assessed as cell growth at 3X10'-9 M after 48 hrs by sulforhodamine B assay; settings: HL-60, 48 h, read-out: Activity
# M14 = assay: Growth inhibition of human M14 cells assessed as cell growth at 3X10'-7 M after 48 hrs by sulforhodamine B assay; settings: M14, 48 h, read-out: Activity
# HOP-62 = assay: Growth inhibition of human HOP62 cells assessed as cell growth at 3X10'-8 M after 48 hrs by sulforhodamine B assay; settings: HOP-62, 48 h, read-out: Activity
# 786-0 [3] = assay: Growth inhibition of human 786-0 cells assessed as cell growth at 3X10'-9 M after 48 hrs by sulforhodamine B assay; settings: 786-0, 48 h, read-out: Activity
# OVCAR-8 [4] = assay: Growth inhibition of human OVCAR8 cells assessed as cell growth at 3X10'-7 M after 48 hrs by sulforhodamine B assay; settings: OVCAR-8, 48 h, read-out: Activity
# SK-OV-3 [5] = assay: Growth inhibition of human SKOV3 cells assessed as cell growth at 3X10'-9 M after 48 hrs by sulforhodamine B assay; settings: SK-OV-3, 48 h, read-out: Activity
# K562 [6] = assay: Growth inhibition of human K562 cells assessed as cell growth at 3X10'-6 M after 48 hrs by sulforhodamine B assay; settings: K562, 48 h, read-out: Activity
# CCRF-CEM [7] = assay: Growth inhibition of human CCRF-CEM cells assessed as cell growth at 3X10'-6 M after 48 hrs by sulforhodamine B assay; settings: read-out: Activity
# SK-OV-3 [8] = assay: Growth inhibition of human SKOV3 cells assessed as cell growth at 3X10'-8 M after 48 hrs by sulforhodamine B assay; settings: SK-OV-3, 48 h, read-out: Activity
# OVCAR-8 [9] = assay: Growth inhibition of human OVCAR8 cells assessed as cell growth at 3X10'-9 M after 48 hrs by sulforhodamine B assay; settings: OVCAR-8, 48 h, read-out: Activity
# IGROV-1 = assay: Growth inhibition of human IGROV1 cells assessed as cell growth at 3X10'-7 M after 48 hrs by sulforhodamine B assay; settings: IGROV-1, 48 h, read-out: Activity
# SR = assay: Growth inhibition of human SR cells assessed as cell growth at 3X10'-7 M after 48 hrs by sulforhodamine B assay; settings: read-out: Activity
# RXF 393 = assay: Growth inhibition of human RXF393 cells assessed as cell growth at 3X10'-8 M after 48 hrs by sulforhodamine B assay; settings: RXF 393, 48 h, read-out: Activity
# BT-549 = assay: Growth inhibition of human BT549 cells assessed as cell growth at 3X10'-8 M after 48 hrs by sulforhodamine B assay; settings: BT-549, 48 h, read-out: Activity
# [10] = Growth inhibition of human NCI-ADR-RES cells assessed as cell growth at 10^-7 M after 48 hrs by sulforhodamine B assay; settings: read-out: Activity
# U-251 = assay: Growth inhibition of human U251 cells assessed as cell growth at 10^-4 M after 48 hrs by sulforhodamine B assay; settings: U-251, 48 h, read-out: Activity
# SK-OV-3 [11] = assay: Growth inhibition of human SKOV3 cells assessed as cell growth at 10^-5 M after 48 hrs by sulforhodamine B assay; settings: SK-OV-3, 48 h, read-out: Activity
# SK-OV-3 [12] = assay: Growth inhibition of human SKOV3 cells assessed as cell growth at 10^-4 M after 48 hrs by sulforhodamine B assay; settings: SK-OV-3, 48 h, read-out: Activity
# LOX IMVI = assay: Growth inhibition of human LOXIMVI cells assessed as cell growth at 10^-7 M after 48 hrs by sulforhodamine B assay; settings: read-out: Activity
# 786-0 [13] = assay: Growth inhibition of human 786-0 cells assessed as cell growth at 10^-7 M after 48 hrs by sulforhodamine B assay; settings: 786-0, 48 h, read-out: Activity
# K562 [14] = assay: Growth inhibition of human K562 cells assessed as cell growth at 10^-4 M after 48 hrs by sulforhodamine B assay; settings: K562, 48 h, read-out: Activity
# MDA-MB-435 = assay: Growth inhibition of human MDA-MB-435 cells assessed as cell growth at 10^-8 M after 48 hrs by sulforhodamine B assay; settings: MDA-MB-435, 48 h, read-out: Activity
# MDA-MB-231 = assay: Growth inhibition of human MDA-MB-231 cells assessed as cell growth at 10^-5 M after 48 hrs by sulforhodamine B assay; settings: MDA-MB-231, 48 h, read-out: Activity
# OVCAR-4 = assay: Growth inhibition of human OVCAR4 cells assessed as cell growth at 10^-8 M after 48 hrs by sulforhodamine B assay; settings: OVCAR-4, 48 h, read-out: Activity
# ACHN = assay: Growth inhibition of human ACHN cells assessed as cell growth at 10^-4 M after 48 hrs by sulforhodamine B assay; settings: read-out: Activity
# A498 = assay: Growth inhibition of human A498 cells assessed as cell growth at 10^-7 M after 48 hrs by sulforhodamine B assay; settings: A498, 48 h, read-out: Activity
# SN12C = assay: Growth inhibition of human SN12C cells assessed as cell growth at 10^-8 M after 48 hrs by sulforhodamine B assay; settings: read-out: Activity
# Malme-3M = assay: Growth inhibition of human MALME-3M cells assessed as cell growth at 10^-8 M after 48 hrs by sulforhodamine B assay; settings: read-out: Activity
# SK-MEL-2 = assay: Growth inhibition of human SK-MEL-2 cells assessed as cell growth at 10^-5 M after 48 hrs by sulforhodamine B assay; settings: SK-MEL-2, 48 h, read-out: Activity
# OVCAR-8 [15] = assay: Growth inhibition of human OVCAR8 cells assessed as cell growth at 10^-6 M after 48 hrs by sulforhodamine B assay; settings: OVCAR-8, 48 h, read-out: Activity
# SF-539 = assay: Growth inhibition of human SF539 cells assessed as cell growth at 10^-5 M after 48 hrs by sulforhodamine B assay; settings: SF-539, 48 h, read-out: Activity
# SF-268 = assay: Growth inhibition of human SF268 cells assessed as cell growth at 10^-6 M after 48 hrs by sulforhodamine B assay; settings: SF-268, 48 h, read-out: Activity
# CCRF-CEM [16] = assay: Growth inhibition of human CCRF-CEM cells assessed as cell growth at 10^-4 M after 48 hrs by sulforhodamine B assay; settings: read-out: Activity
# OVCAR-3 [17] = assay: Growth inhibition of human OVCAR3 cells assessed as cell growth at 10^-5 M after 48 hrs by sulforhodamine B assay; settings: OVCAR-3, 48 h, read-out: Activity
SMILES,growth at 0.03 µM (OVCAR-3 [1]) [%],growth at 0.003 µM (MDA-MB-468) [%],growth at 3 µM (UO-31) [%],growth at 0.3 µM (786-0 [2]) [%],growth at 0.003 µM (HL-60(TB)) [%],growth at 0.3 µM (M14) [%],growth at 0.03 µM (HOP-62) [%],growth at 0.003 µM (786-0 [3]) [%],growth at 0.3 µM (OVCAR-8 [4]) [%],growth at 0.003 µM (SK-OV-3 [5]) [%],growth at 3 µM (K562 [6]) [%],growth at 3 µM (CCRF-CEM [7]) [%],growth at 0.03 µM (SK-OV-3 [8]) [%],growth at 0.003 µM (OVCAR-8 [9]) [%],growth at 0.3 µM (IGROV-1) [%],growth at 0.3 µM (SR) [%],growth at 0.03 µM (RXF 393) [%],growth at 0.03 µM (BT-549) [%],further results
COc1cc(-c2nn(-c3cccc(NC(=O)Nc4ccc(Cl)c(C(F)(F)F)c4)c3)cc2-c2ccncc2)ccc1Cl,109,101,3,101,101,100,95,101,97,105,12,3,104,105,109,98,93,113,–
O=C(Nc1cccc(-n2cc(-c3ccncc3)c(-c3ccc(Cl)c(O)c3)n2)c1)Nc1ccc(Cl)c(Cl)c1,100,90,19,103,90,96,96,97,95,96,16,10,99,103,107,97,100,102,–
COc1cc(-c2nn(-c3cccc(NC(=O)c4ccccc4)c3)cc2-c2ccncc2)ccc1Cl,–,–,–,–,–,–,–,–,–,–,–,–,–,–,–,–,–,–,growth at 0.1 µM [10]: 92%; growth at 100 µM (U-251): -18%; growth at 10 µM (SK-OV-3 [11]): 31%; growth at 100 µM (SK-OV-3 [12]): 19%; growth at 0.1 µM (LOX IMVI): 94%; growth at 0.1 µM (786-0 [13]): 92%; growth at 100 µM (K562 [14]): 11%; growth at 0.01 µM (MDA-MB-435): 96%; growth at 10 µM (MDA-MB-231): 7%; growth at 0.01 µM (OVCAR-4): 93%; growth at 100 µM (ACHN): 27%; growth at 0.1 µM (A498): 89%; growth at 0.01 µM (SN12C): 96%; growth at 0.01 µM (Malme-3M): 98%; growth at 10 µM (SK-MEL-2): -10%; growth at 1 µM (OVCAR-8 [15]): 50%; growth at 10 µM (SF-539): -25%; growth at 1 µM (SF-268): 47%; growth at 100 µM (CCRF-CEM [16]): 16%; growth at 10 µM (OVCAR-3 [17]): 2%
COc1cc(-c2nn(-c3cccc(NC(=O)c4ccc(Cl)c(C(F)(F)F)c4)c3)cc2-c2ccncc2)ccc1Cl,104,89,29,99,93,94,96,94,93,100,22,32,100,100,95,82,99,96,–
O=C(Nc1cccc(-n2cc(-c3ccncc3)c(-c3ccc(Cl)c(O)c3)n2)c1)Nc1ccc(Cl)c(C(F)(F)F)c1,113,89,-3,96,116,94,100,98,89,102,3,-7,102,100,85,81,93,106,–
O=C(Nc1cccc(-n2cc(-c3ccncc3)c(-c3ccc(Cl)c(O)c3)n2)c1)Nc1cccc(C(F)(F)F)c1,93,95,37,99,99,100,98,98,91,98,22,25,96,99,100,100,97,96,–
COc1cc(-c2nn(-c3cccc(NC(=O)c4ccc(N5CCOCC5)c(C(F)(F)F)c4)c3)cc2-c2ccncc2)ccc1Cl,–,–,–,–,–,–,–,–,–,–,–,–,–,–,–,–,–,–,growth at 0.1 µM [10]: 72%; growth at 100 µM (U-251): -59%; growth at 10 µM (SK-OV-3 [11]): -11%; growth at 100 µM (SK-OV-3 [12]): -28%; growth at 0.1 µM (LOX IMVI): 78%; growth at 0.1 µM (786-0 [13]): 100%; growth at 100 µM (K562 [14]): 3%; growth at 0.01 µM (MDA-MB-435): 90%; growth at 10 µM (MDA-MB-231): -30%; growth at 0.01 µM (OVCAR-4): 97%; growth at 100 µM (ACHN): 2%; growth at 0.1 µM (A498): 77%; growth at 0.01 µM (SN12C): 95%; growth at 0.01 µM (Malme-3M): 103%; growth at 10 µM (SK-MEL-2): -2%; growth at 1 µM (OVCAR-8 [15]): 30%; growth at 10 µM (SF-539): -54%; growth at 1 µM (SF-268): 41%; growth at 100 µM (CCRF-CEM [16]): 8%; growth at 10 µM (OVCAR-3 [17]): -36%
